The values below come from article PMC6008489 (Bioorganic & Medicinal Chemistry, 2018).

The target in one data set is T1, PKCζ (Homo sapiens, UniProt Q05513).
T1 construct: purchased Perkin Elmer (ProfilerPro assay kit 1)
T1 sequence (Q05513 1-592): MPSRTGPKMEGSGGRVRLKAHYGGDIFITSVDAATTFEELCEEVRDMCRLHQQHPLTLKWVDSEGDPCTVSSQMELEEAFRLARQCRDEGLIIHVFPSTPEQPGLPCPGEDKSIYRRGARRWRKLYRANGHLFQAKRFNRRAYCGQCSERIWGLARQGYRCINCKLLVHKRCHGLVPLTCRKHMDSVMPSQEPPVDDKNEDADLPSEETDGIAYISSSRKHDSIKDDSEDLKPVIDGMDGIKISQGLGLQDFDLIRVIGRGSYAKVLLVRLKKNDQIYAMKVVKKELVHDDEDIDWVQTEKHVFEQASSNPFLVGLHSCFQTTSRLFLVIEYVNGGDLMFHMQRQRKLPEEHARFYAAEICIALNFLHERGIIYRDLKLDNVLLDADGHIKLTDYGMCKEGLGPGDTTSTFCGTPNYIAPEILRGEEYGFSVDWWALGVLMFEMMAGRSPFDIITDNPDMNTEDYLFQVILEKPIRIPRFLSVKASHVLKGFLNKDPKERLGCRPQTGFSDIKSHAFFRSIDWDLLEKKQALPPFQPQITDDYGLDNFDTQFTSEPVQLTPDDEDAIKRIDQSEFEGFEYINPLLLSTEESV
As to the kind of experiment: 26-kinase panel mobility shift assay, single concentration. The data set is classed as biochemical. As to conditions: read-out: % Inhibition PKC.

A short description of data set [1]: Solubility as noted for the kinase panel screen. The data set is classed as physicochemical. As to conditions: reason for screening at 30 µM instead of 100 µM.

Procedure for PKCζ: In order to test the biochemical activity of our fragment library, a panel of 26 structurally diverse protein kinases was used.
Mobility Shift Assay Protocol
Screening of 26 kinases using a mobility shift assay
A mobility shift assay to determine kinase inhibition was carried out using a
modified version of the ProfilerPro assay kit 1 (Perkin Elmer, Coventry, UK)
including MPS1 and Aurora B. Each kit contained an enzyme plate, a substrate
plate, reconstitution buffer, 1 M DTT, protease inhibitor cocktail and termination
buffer. Test compounds were added as a solution in DMSO.
final concentration. […] The
peptide phosphorylation assay was carried out as per the manufacturer’s
instructions. The electrophoretic separation and analysis of the phosphorylated
and non-phosphorylated peptides was carried out on a 4-sipper chip using a
LabChip EZReader II (Perkin Elmer). Results were expressed as % inhibition of
peptide phosphorylation relative to control wells for 0 % (no test compound) and
100 % (no ATP) inhibition. The percentage inhibition was calculated using the
% Inhibition = [1 - (% Conversion Sample / % Conversion 0% Inhibition Control)] x 100

The term inhibition denotes the relative decrease from the control value, in per cent. Take `Nc1ccc[nH]c1=O` [Compound 1, 3-aminopyridin-2-one]: at PKCζ, the inhibition at 100 µM worked out at 27%. In general, melting point refers to the temperature, or range, at which the solid turns liquid. `Cn1cc(-c2c[nH]c(=O)c(N)c2)cn1` [Compound 2, 3-Amino-5-(1-methyl-1H-pyrazol-4-yl)pyridin-2(1H)-one] yielded a melting point of 264 °C. For the same molecule, the inhibition at 100 µM at PKCζ amounted to 83%.

`COc1ncc(-c2ccncc2)cc1N` [Compound 5, 6-Methoxy-3,4′-bipyridin-5-amine]: the inhibition at 100 µM at PKCζ was found to be 5%. Regarding `Nc1cc(-c2ccnc3ccccc23)c[nH]c1=O` [Compound 6], the inhibition at 100 µM on PKCζ is 17%. On the same count and under the same terms, the result for `CNc1nccc(-c2c[nH]c(=O)c(N)c2)n1` [Compound 7] reads 37%. Still for that read-out and setting: with `Nc1cc(-c2ccnc(NC3CC3)n2)c[nH]c1=O` [Compound 8] the figure was 0%; with `Cc1nc(O)c(N)cc1-c1ccncc1` [Compound 15, 3-Amino-6-methyl-5-(pyridin-4-yl)pyridin-2-one], 13%. With `O=C(Nc1cc(-c2ccncc2)c[nH]c1=O)c1ccccc1` [Compound 16, N-(2-Oxo-5-(pyridin-4-yl)-1,2-dihydropyridin-3-yl)benzamide], the “solubility (in words)” value in data set [1] is “poor solubility”. The inhibition at 30 µM at PKCζ was determined as 0%.

In the case of `CN1CCN(c2ccc(C(=O)Nc3cc(-c4ccncc4)c[nH]c3=O)cc2)CC1` [Compound 22], the “solubility (in words)” value in data set [1] was “poor solubility”. Besides, on PKCζ, the inhibition at 30 µM was determined as 24%.

`O=C(Nc1cc(-c2ccnc(NC3CC3)n2)c[nH]c1=O)c1ccccc1` [Compound 24]: in data set [1], the “solubility (in words)” value is “poor solubility”. At PKCζ, the inhibition at 30 µM stood at 0%.
